Reference: ChEMBL document CHEMBL4184150, “Microcystins: Synthesis and structure-activity relationship studies toward PP1 and PP2A” (Bioorg Med Chem, 2018)

Tests used:
[1] = Inhibition of rabbit skeletal muscle PP1 catalytic subunit using [32P]-phosphorylase alpha as substrate pretreated for 10 mins followed by substrate addition; parameters: species or system Oryctolagus cuniculus
[2] = Inhibition of rabbit skeletal muscle PP2A catalytic subunit using [32P]-phosphorylase alpha as substrate pretreated for 10 mins followed by substrate addition; parameters: species or system Oryctolagus cuniculus
Oryctolagus cuniculus = species on record: Oryctolagus cuniculus; experiment: Selectivity ratio of IC50 for rabbit skeletal muscle PP2A catalytic subunit to IC50 for rabbit skeletal muscle PP1 catalytic subunit
[3] = biological target: Serine/threonine-protein phosphatase 2A catalytic subunit alpha isoform (Homo sapiens, UniProt P67775); experiment: Inhibition of recombinant human PP2A catalytic subunit L309 deletion mutant using DIFMUP as substrate pretreated for 10 mins followed by substrate addition measured every 15 secs for 30 mins by fluorescence assay
[4] = biological target: Serine/threonine-protein phosphatase PP1-alpha catalytic subunit (Homo sapiens, UniProt P62136); experiment: Inhibition of recombinant PP1alpha catalytic subunit (unknown origin) using DIFMUP as substrate pretreated for 10 mins followed by substrate addition measured every 15 secs for 30 mins by fluorescence assay
Chain of Serine/threonine-protein phosphatase PP1-alpha catalytic subunit (P62136 whole entry): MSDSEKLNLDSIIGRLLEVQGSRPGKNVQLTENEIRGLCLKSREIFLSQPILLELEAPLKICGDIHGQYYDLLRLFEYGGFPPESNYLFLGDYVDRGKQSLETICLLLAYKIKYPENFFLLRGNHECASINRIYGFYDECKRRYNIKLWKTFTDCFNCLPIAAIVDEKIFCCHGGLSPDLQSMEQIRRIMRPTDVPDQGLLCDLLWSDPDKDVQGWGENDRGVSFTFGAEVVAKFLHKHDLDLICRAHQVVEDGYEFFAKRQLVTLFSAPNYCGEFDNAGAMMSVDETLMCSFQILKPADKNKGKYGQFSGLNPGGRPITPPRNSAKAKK

Chain of Serine/threonine-protein phosphatase 2A catalytic subunit alpha isoform (P67775 whole entry, looked up, canonical isoform): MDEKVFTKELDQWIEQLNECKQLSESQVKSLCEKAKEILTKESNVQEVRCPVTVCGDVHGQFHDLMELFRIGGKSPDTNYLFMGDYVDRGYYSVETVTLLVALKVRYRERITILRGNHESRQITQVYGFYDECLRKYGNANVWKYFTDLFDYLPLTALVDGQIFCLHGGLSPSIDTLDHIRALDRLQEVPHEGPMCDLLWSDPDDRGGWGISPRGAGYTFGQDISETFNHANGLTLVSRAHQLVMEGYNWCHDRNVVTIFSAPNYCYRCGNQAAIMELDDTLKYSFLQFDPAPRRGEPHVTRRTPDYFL

C=C1C(=O)N[C@H](C)C(=O)N[C@@H](CC2CCCCC2)C(=O)N[C@@H](C(=O)O)[C@H](C)C(=O)N[C@@H](C)C(=O)N[C@@H](/C=C/C(C)=C/[C@H](C)[C@H](Cc2ccccc2)OC)[C@H](C)C(=O)N[C@@H](C(=O)O)CCC(=O)N1C
IC50 [1]: 0.52 nM
IC50 [2]: 3.4 nM
Ratio IC50 (Oryctolagus cuniculus): 7

CC(C)C[C@@H]1NC(=O)[C@@H](C)NC(=O)CN(C)C(=O)CC[C@H](C(=O)O)NC(=O)[C@@H](C)[C@H](C)NC(=O)[C@H](Cc2ccccc2)NC(=O)C[C@H](C(=O)O)NC1=O
IC50 [3]: 900 nM
IC50 [4]: 254000 nM
